Measurements from paper PMC9322451 (Clinical Pharmacology in Drug Development, 2022).
Like-named read-outs stand apart in the source and are kept apart here.

How the values were obtained:
[1] = Phase 1 part A: PK after single and multiple once-daily oral doses; assay type: in vivo, human; conditions: for AUC / AUC(0-inf) / AUC(0-t) / Cmax / half-life / Tmax: human, plasma, po; for AUC / AUC(0-inf) / AUC(0-t) / Cmax / half-life: mean (CV%); for half-life: read-out: t1/2 (converted); for Tmax: median (range), read-out: Tmax
Protocol: The study was conducted sequentially in 2 parts. […] Eligible participants were admitted to the clinical unit for single‐dose evaluation from days −2 to 2 and from days 29 to 31 for steady‐state PK and safety evaluation. Participants self‐administered daily doses after an overnight fast of at least 10 hours on days 4 to 30, with outpatient visits on days 3, 4, 7, 14, 21, 32, 33, and 61 (Figure S1).
For part A, blood samples for PK assessments were collected following administration on days 1 and 30 at 0 (predose), 0.5, 0.75, 1, 1.5, 2, 3, 4, 8, 12, 24, 48, and 72 hours after dosing. In addition, predose PK samples were collected on days 4, 7, 14, and 21. PK parameters following single and multiple once‐daily dosing were evaluated using noncompartmental analysis, including the AUC over a dosing interval (AUCτ), AUC from time 0 to the last time with quantifiable concentration (AUClast), AUC from time 0 to infinite time (AUC∞), maximum plasma concentration (Cmax), minimum plasma concentration, time to maximum plasma concentration (tmax), terminal elimination half‐life (t1/2), apparent total drug clearance following oral administration (CL/F), and predose concentration.
All statistical analyses were performed using SAS version 9.3 or higher (SAS Institute Inc., Cary, North Carolina). Analysis of PK data was performed using WinNonlin Professional Software version 8.0 or higher (Certara, LP, Princeton, New Jersey). […] Categorical data were summarized by race and treatment group in terms of number of participants with data at relevant time points, frequency counts, and percentages. PK concentrations below the limit of quantification (BLQ) at time 0 on days 1 and 30 were considered 0. Postdose BLQ data were considered missing for PK parameter calculation. For mean concentrations and graphic presentation, all BLQ data were imputed as 0.

CYP2E1 = tested on: CYP2E1; set-up: method as in unpublished data; conditions: ref unpublished data; cited from earlier work
[2] = 10 mg, Day 30, 10 mg once daily, Japanese
[3] = 10 mg, Day 30, 10 mg once daily, White
[4] = 25 mg, Day 30, 25 mg once daily, Japanese
[5] = 25 mg, Day 30, 25 mg once daily, White
[6] = 40 mg, Day 30, 40 mg once daily, Japanese
[7] = 40 mg, Day 30, 40 mg once daily, White

Cn1c(=O)oc2ccc(-c3ccc(C[C@@H](C#N)NC(=O)[C@@H]4CNCCCO4)cc3)cc21 [Brensocatib]
AUC [1, 2]: 1.05 µg·h/mL
AUC(0-inf) [1, 2]: 1.99 µg·h/mL
AUC(0-t) [1, 2]: 1.73 µg·h/mL
Cmax [1, 2]: 0.0805 µg/mL
half-life [1, 2]: 22.5 h
Tmax [1, 2]: 1.26 h
AUC [1, 3]: 1.19 µg·h/mL
AUC(0-inf) [1, 3]: 2.54 µg·h/mL
AUC(0-t) [1, 3]: 2.1 µg·h/mL
Cmax [1, 3]: 0.0895 µg/mL
half-life [1, 3]: 28.1 h
Tmax [1, 3]: 1.02 h
AUC ([1]; 25 mg, Day 1, 25 mg, Japanese): 2.01 µg·h/mL
AUC(0-inf) ([1]; 25 mg, Day 1, 25 mg, Japanese): 3.39 µg·h/mL
AUC(0-t) ([1]; 25 mg, Day 1, 25 mg, Japanese): 3.04 µg·h/mL
Cmax ([1]; 25 mg, Day 1, 25 mg, Japanese): 0.209 µg/mL
half-life ([1]; 25 mg, Day 1, 25 mg, Japanese): 21.7 h
Tmax ([1]; 25 mg, Day 1, 25 mg, Japanese): 1.5 h
AUC ([1]; 25 mg, Day 1, 25 mg, White): 1.72 µg·h/mL
AUC(0-inf) ([1]; 25 mg, Day 1, 25 mg, White): 3.21 µg·h/mL
AUC(0-t) ([1]; 25 mg, Day 1, 25 mg, White): 2.81 µg·h/mL
Cmax ([1]; 25 mg, Day 1, 25 mg, White): 0.161 µg/mL
half-life ([1]; 25 mg, Day 1, 25 mg, White): 24.5 h
Tmax ([1]; 25 mg, Day 1, 25 mg, White): 1.35 h
AUC [1, 4]: 4.17 µg·h/mL
AUC(0-inf) [1, 4]: 7.89 µg·h/mL
AUC(0-t) [1, 4]: 6.89 µg·h/mL
Cmax [1, 4]: 0.301 µg/mL
half-life [1, 4]: 23.3 h
Tmax [1, 4]: 1.75 h
AUC [1, 5]: 3.87 µg·h/mL
AUC(0-inf) [1, 5]: 8.16 µg·h/mL
AUC(0-t) [1, 5]: 6.71 µg·h/mL
Cmax [1, 5]: 0.265 µg/mL
half-life [1, 5]: 28.6 h
Tmax [1, 5]: 1.02 h
AUC ([1]; 40 mg, Day 1, 40 mg, Japanese): 2.66 µg·h/mL
AUC(0-inf) ([1]; 40 mg, Day 1, 40 mg, Japanese): 4.58 µg·h/mL
AUC(0-t) ([1]; 40 mg, Day 1, 40 mg, Japanese): 4.04 µg·h/mL
Cmax ([1]; 40 mg, Day 1, 40 mg, Japanese): 0.245 µg/mL
half-life ([1]; 40 mg, Day 1, 40 mg, Japanese): 23.2 h
Tmax ([1]; 40 mg, Day 1, 40 mg, Japanese): 1.5 h
AUC ([1]; 40 mg, Day 1, 40 mg, White): 3.42 µg·h/mL
AUC(0-inf) ([1]; 40 mg, Day 1, 40 mg, White): 5.93 µg·h/mL
AUC(0-t) ([1]; 40 mg, Day 1, 40 mg, White): 5.3 µg·h/mL
Cmax ([1]; 40 mg, Day 1, 40 mg, White): 0.328 µg/mL
half-life ([1]; 40 mg, Day 1, 40 mg, White): 22.1 h
Tmax ([1]; 40 mg, Day 1, 40 mg, White): 1.27 h
AUC [1, 6]: 4.01 µg·h/mL
AUC(0-inf) [1, 6]: 7.11 µg·h/mL
AUC(0-t) [1, 6]: 6.4 µg·h/mL
Cmax [1, 6]: 0.334 µg/mL
half-life [1, 6]: 21.9 h
Tmax [1, 6]: 1.03 h
AUC [1, 7]: 6.47 µg·h/mL
AUC(0-inf) [1, 7]: 12.2 µg·h/mL
AUC(0-t) [1, 7]: 10.6 µg·h/mL
Cmax [1, 7]: 0.467 µg/mL
half-life [1, 7]: 23.6 h
Tmax [1, 7]: 1.49 h
accumulation in maximum plasma concentration and AUC at steady state ([1]; once-daily dosing): ≈ 2 fold
Dose‐normalized Cmax lower in Japanese than in White participants ([1]; pooled dose groups): 19.1%
dose‐normalized AUCs lower in Japanese than in White participants ([1]; pooled dose groups): ≈ 25.6%
CYP inhibition (CYP2E1): no effect
